In ChEMBL document CHEMBL4364338, “Probing the side chain tolerance for inhibitors of the CD95/PLCγ1 interaction” (Bioorg Med Chem Lett, 2019):
The source made the active and inactive calls. The rule behind the calls is not given here.

Key:
[1] = Inhibition of CD95 (unknown origin)/FADD (unknown origin) protein-protein interaction transfected in HEK293T cells incubated for 1 hr by renilla luciferase based protein-fragment complementation assay; assay type: cell-based, Homo sapiens
[2] = Inhibition of CD95 (unknown origin)/PLCgamma-1 SH3 domain (unknown origin) protein-protein interaction transfected in HEK293T cells incubated for 1 hr by renilla luciferase based protein-fragment complementation assay; assay type: cell-based, Homo sapiens
Homo sapiens [3] = species on record: Homo sapiens; experiment: Selectivity index, ratio of IC50 for CD95 (unknown origin)/FADD (unknown origin) protein-protein interaction transfected in HEK293T cells to IC50 for CD95 (unknown origin)/PLCgamma-1 SH3 domain (unknown origin) protein-protein interaction transfected in HEK293T cells; assay type: cell-based
Homo sapiens [4] = species on record: Homo sapiens; experiment: Inhibition of CD95 (unknown origin)/PLCgamma-1 SH3 domain D808A mutant (unknown origin) protein-protein interaction transfected in HEK293T cells incubated for 1 hr by renilla luciferase based protein-fragment complementation assay; assay type: cell-based
Homo sapiens [5] = species on record: Homo sapiens; experiment: Inhibition of CD95 (unknown origin)/PLCgamma-1 SH3 domain Q805A mutant (unknown origin) protein-protein interaction transfected in HEK293T cells incubated for 1 hr by renilla luciferase based protein-fragment complementation assay; assay type: cell-based

| IC50 [1] [µM] | IC50 [2] [µM] | Molecule | Ratio IC50 (Homo sapiens [3]) | inhibition (Homo sapiens [4]) | inhibition (Homo sapiens [5]) |
| --- | --- | --- | --- | --- | --- |
| > 5000 | > 5000 | N=C(N)NCCC[C@@H](C(=O)NCCN(C(=O)CCCCCN)[C@@H](Cc1c[nH]cn1)C(=O)NCCN(C(=O)CCCCCC(N)=O)[C@@H](CCCCN)C(N)=O)N(CCN)C(=O)CCS |  |  |  |
| 3800 | 75 | N=C(N)NCCCCC(=O)N(CCNC(=O)[C@H](Cc1c[nH]cn1)N(CCNC(=O)[C@H](CCCNC(=N)N)N(CCN)C(=O)CCS)C(=O)CCCCCN)[C@@H](CCCCN)C(N)=O | 50 |  |  |
| 2650 | 343 | N=C(N)NCCC[C@@H](C(=O)NCCN(C(=O)CCCCCN)[C@@H](Cc1c[nH]cn1)C(=O)NCCN(C(=O)CCc1c[nH]c2ccccc12)[C@@H](CCCCN)C(N)=O)N(CCN)C(=O)CCS | 8 |  |  |
| > 5000 | 35 | H-TCRKHRK-OH | > 100 |  |  |
| > 5000 | 856 | N=C(N)NCCC[C@@H](C(=O)NCCN(C(=O)CCCCCN)[C@@H](Cc1c[nH]cn1)C(=O)NCCN(C(=O)CCc1ccc(N)cc1)[C@@H](CCCCN)C(N)=O)N(CCN)C(=O)CCS | > 10 |  |  |
| > 5000 | 77 | C[C@@H](O)[C@H](N)C(=O)NCCN(C(=O)CCS)[C@@H](CCCNC(=N)N)C(=O)NCCN(C(=O)CCCCCN)[C@@H](Cc1c[nH]cn1)C(=O)NCCN(C(=O)CCCCNC(=N)N)[C@@H](CCCCN)C(N)=O | > 100 | inactive | inactive |
| > 5000 | 655 | N=C(N)NCCC[C@@H](C(=O)NCCN(C(=O)CCCCCN)[C@@H](Cc1c[nH]cn1)C(=O)NCCN(C(=O)CCc1ccc(O)cc1)[C@@H](CCCCN)C(N)=O)N(CCN)C(=O)CCS | > 10 |  |  |
| > 5000 | 61 | CCC(=O)N(CCN)[C@@H](CCCNC(=N)N)C(=O)NCCN(C(=O)CCCCCN)[C@@H](Cc1c[nH]cn1)C(=O)NCCN(C(=O)CCCCNC(=N)N)[C@@H](CCCCN)C(N)=O | > 100 |  |  |
| 173 | 85 | N=C(N)NCCCCC(=O)N(CCNC(=O)[C@H](Cc1c[nH]cn1)N(CCNC(=O)[C@H](Cc1c[nH]c2ccccc12)N(CCN)C(=O)CCS)C(=O)CCCCCN)[C@@H](CCCCN)C(N)=O | 2 |  |  |
| 4250 | 907 | N=C(N)NCCCCC(=O)N(CCNC(=O)[C@H](Cc1c[nH]cn1)N(CCNC(=O)[C@H](Cc1cccnc1)N(CCN)C(=O)CCS)C(=O)CCCCCN)[C@@H](CCCCN)C(N)=O | 4 |  |  |
| 3930 | 79 | N=C(N)NCCCCC(=O)N(CCNC(=O)[C@H](Cc1c[nH]cn1)N(CCNC(=O)[C@H](CCCNC(=N)N)N(CCN)C(=O)CCO)C(=O)CCCCCN)[C@@H](CCCCN)C(N)=O | 50 |  |  |
